# US4845123A, “Reduction in vivo of the inappropriate levels of endogenous and environmental-derived compounds by sustained-release inhibitors of β- g” (priority 1985, dated 1989)
# Experiments:
# [1] = system: DMBA-induced mammary tumors; test: DMBA-induced mammary tumorigenesis, initiation, promotion and tumor regression; format: in vivo, rat
# Procedure: Fifty day old female Sprague Dawley rats were utilized in these experiments. For induction of mammary tumors the rats received a single dose of 130 mg/kg of DMBA in sesame oil by gavage. Animals pretreated with CGT received 4.5 mmoles/kg of CGT in sesame oil at 3 hours and again at 0.5 hours before administration of the carcinogen. This protocol tests the inhibitory effect of CGT on the initiation phase. Alternatively, the rats were fed a standard chow diet supplemented with 10% CGT (w/w). To evaluate the effect of CGT on the promotion phase the rats were changed from the chow diet to the CGT supplemented diet two weeks after treatment with DMBA. One mole of glucarate is converted to approximately one-third of a mole of GL in an equilibrated aqueous solution.
# The mammary tumors were measured with micrometer calipers. Two measurements were taken, the longest dimension and dimension at right angles to this parameter.
# At this time, the rats were transferred from a chow diet to a chow diet supplemented with 10% CGT. This diet was continued until the termination of the experiment. […] Three groups each, with eighteen 50 day old rats, were given intragastrically a single dose of 20 mg of DMBA in 1.0 ml of sesame oil. One group ( -- ) received 4.5 mmoles/kg of CGT by stomach tube at 3 hours and again at 0.5 hours before DMBA. A second (control) group (.circle.O--O.circle.) received vehicle (i.e. sesame oil) only at the same two time periods. Both of these groups were then put on regular chow diet.
# [2] = rat, in vivo, ip
# Procedure: TCDD was administered i.p. in a single dose of 40 μg/kg in sesame oil (0.5 ml) to 125 gm female Sprague Dawley rats. One group of 4 rats received 2 doses of CGT (4.5 mmole/kg) in sesame oil (1.0 ml) by stomach tube at 3 hours and a second dose at 0.5 hours before treatment with TCDD. A second, TCDD-treated group received oil only in place of the CGT. Control rats received oil only by stomach tube and i.p. injection.
# Morris Hepatoma 7777 = test: growth of transplanted Morris Hepatoma 7777; format: in vivo, rat; conditions: 2% CGT diet from one week before transplant, male Buffalo rats
# Procedure: One group of male Buffalo rats was put on 2% CGT diet one week before the hepatoma transplant, while the other group of rats (controls) was kept on the regular chow diet. A minimum number of Morris Hepatoma 7777 cells consistent with tumor growth were innoculated subcutaneously in the left flank of all rats. Tumor diameters were measured at least twice weekly, and tumor volume was calculated.
# [3] = system: MNU-induced mammary tumors; test: MNU-induced mammary carcinogenesis; format: in vivo, rat; conditions: MNU 40 mg/kg i.v., DAGDL 2 dose schedule; FIG. 10
# Procedure: In this experiment, MNU (40 mg/kg) was administered to 50 day old Sprague Dawley female rats by i.v. injection. One half of the rats were co-administered DAGDL according to a 2 dose schedule.
# serum β-glucuronidase [4] = biological target: T1, serum β-glucuronidase (Rattus norvegicus, UniProt P06760); conditions: Iida et al. 1965; cited from earlier work
# T1 sequence (P06760 23-648): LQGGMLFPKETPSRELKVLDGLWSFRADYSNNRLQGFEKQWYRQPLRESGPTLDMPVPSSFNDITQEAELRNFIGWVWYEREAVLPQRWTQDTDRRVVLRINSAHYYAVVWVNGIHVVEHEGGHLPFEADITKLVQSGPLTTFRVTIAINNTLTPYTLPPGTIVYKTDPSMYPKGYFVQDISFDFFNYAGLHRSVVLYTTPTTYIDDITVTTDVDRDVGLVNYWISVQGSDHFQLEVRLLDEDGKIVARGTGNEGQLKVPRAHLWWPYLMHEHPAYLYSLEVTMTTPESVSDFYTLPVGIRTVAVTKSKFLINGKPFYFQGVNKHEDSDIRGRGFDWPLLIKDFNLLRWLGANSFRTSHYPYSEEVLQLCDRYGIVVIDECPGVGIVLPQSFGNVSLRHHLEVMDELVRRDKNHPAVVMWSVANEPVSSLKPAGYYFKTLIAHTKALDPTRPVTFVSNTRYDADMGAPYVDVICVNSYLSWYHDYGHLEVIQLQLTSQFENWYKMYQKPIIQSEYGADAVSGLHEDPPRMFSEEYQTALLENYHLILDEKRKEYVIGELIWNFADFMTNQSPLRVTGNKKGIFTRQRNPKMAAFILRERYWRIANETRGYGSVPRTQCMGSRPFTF
# serum β-glucuronidase [5] = biological target: T1, serum β-glucuronidase; format: in vivo; conditions: 1.0 mmoles/kg i.g., assayed 1 hour after administration
# bladder tumor [6] = conditions: Miyakawa et al. 1973; DAGDL given at same time as carcinogen; cited from earlier work
# bladder tumor [7] = conditions: Uemura et al. 1975; cited from earlier work
# bladder tumors = conditions: Boyland et al. 1964 (GL); Katayama 1972 (DAGDL); cited from earlier work
# [8] = system: tumor initiation by 7,12-dimethylbenzanthracene (DMBA); conditions: Walaszek et al. 1984; cited from earlier work
# [9] = system: diabetes, rheumatoid arthritis, toxemia in pregnancy and bladder cancer; conditions: review of the medical literature; cited from earlier work
compound,measurement,setting,value
"O=C([O-])[C@@H](O)[C@@H](O)[C@H](O)[C@@H](O)C(=O)[O-].[Ca+2] [CGT, calcium D-glucarate]",effect on DMBA-induced tumors which escape the anti-promoter effects,[1]; 10% CGT diet,significant regression
same,reduction of the overall tumor incidence due to tumor regression,[1]; 10% CGT diet,14%
same,effect on promotion phase of DMBA-induced mammary carcinogenesis,[1]; 10% CGT diet from 2 weeks post-DMBA,significantly inhibits the promotion phase
same,tumor induction as percent of that in the controls,"[1]; 10% CGT diet from 2 weeks post-DMBA (promotion phase), by 28 weeks",30%
same,Average Tumor Volume,"[1]; 10% CGT diet, 16 wks (spread ± 0.57 on separate line)",2.82 cm^3
same,Average Tumor Volume,"[1]; 10% CGT diet, 20 wks (spread ± 0.76 on separate line)",2.17 cm^3
same,Average Tumor Volume,"[1]; 10% CGT diet, 24 wks (spread ± 0.87 on separate line)",1.87 cm^3
same,Average Tumor Volume,"[1]; 10% CGT diet, 28 wks",1.20 ± 0.82 cm^3
same,Average Tumor Volume,"[1]; 10% CGT diet, 32 wks",1.02 ± 0.77 cm^3
same,reduction in percentage of rats with tumors,"[1]; 10% CGT diet, average, between 18 and 28 days (so in the source)",70%
same,overall tumor incidence,[1]; 10% CGT supplemented diet beginning 2 weeks post-DMBA treatment,33%
same,tumors per rat in rats with tumors,"[1]; CGT diet supplemented group, essentially all rats with tumors",only one tumor per rat
same,effect on TCDD toxicity,[2],"definite anti-""TCDD toxicity"" effect"
same,tumor growth compared with control group,Morris Hepatoma 7777,slightly slower
"CC(=O)O[C@@H]1C(=O)O[C@H]2[C@@H]1OC(=O)[C@@H]2OC(C)=O [DAGDL, 2,5-di-O-acetyl-D-glucaro-1,4;6,3-dilactone]",inhibition of mammary tumor development,[3],approx. 4 fold
same,potency as in vivo β-glucuronidase inhibitor,serum β-glucuronidase [4],potent
same,reduction of serum β-glucuronidase activity,serum β-glucuronidase [5],50%
same,effect on bladder tumor incidence with 2-AAF,bladder tumor [6],did not disclose any significant difference
same,inhibition of N-butyl-N-(4-butanol)nitrosamine-mediated bladder tumor,bladder tumor [7],unsuccessful
same,clinical effect in prevention of bladder tumors,bladder tumors,only a slight beneficial effect
same,effect on initiation of tumor by DMBA,[8],inhibited
same,treatment of existing diseases,[9],unsuccessful
